Assay results as given in patent publication EP3409671B1, “ISOTHIAZOLE DERIVATIVES AS GPR120 AGONISTS FOR THE TREATMENT OF TYPE II DIABETES” (Janssen Pharmaceutica NV, priority 2014, dated 2015).

Columns and labels:
Format in all cases: cell-based
Human GPR120 short form [1] = biological target: T1, Human GPR120 short form (Homo sapiens, UniProt Q5NUL3); assay: Human GPR120 Calcium Flux Assay, Procedure Calcium A; settings: HEK-293 cells expressing Human GPR120 short form, FLIPR, 2500 cells / well; read-out: GPR120 Ca^2+ Assay A EC50
T1 construct: expressed in transfected cells
T1 sequence (Q5NUL3 1-361): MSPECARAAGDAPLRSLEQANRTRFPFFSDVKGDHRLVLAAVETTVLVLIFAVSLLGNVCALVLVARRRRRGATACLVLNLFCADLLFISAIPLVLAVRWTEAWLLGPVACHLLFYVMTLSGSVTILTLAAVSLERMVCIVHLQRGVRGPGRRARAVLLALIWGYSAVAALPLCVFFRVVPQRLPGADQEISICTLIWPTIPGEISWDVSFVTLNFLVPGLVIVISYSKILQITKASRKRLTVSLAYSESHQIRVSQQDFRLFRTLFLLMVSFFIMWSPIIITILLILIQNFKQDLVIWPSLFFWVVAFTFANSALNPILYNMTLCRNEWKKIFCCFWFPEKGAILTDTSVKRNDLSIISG
Description: (§1) This in vitro assay serves to assess test compound agonist activity against the short splice variant (SVS with Accession number NM_001195755.1 confirmed by sequencing data) of the GPR120 receptor. The Human Short splice variant #2 (NM_001195755.1) is missing an in-frame coding exon compared to variant 1 (the Human Long splice variant NM_181745.3), resulting in a shorter isoform (GPR120-S) lacking a 16 aa protein segment compared to isoform GPR120-L. The assay platform utilizes HEK-293 cells stably transfected to express the Human GPR120 short form. These cells are first loaded with the Ca^+2 sensitive dye, Fluo-4 NW. Upon stimulation, intracellular released Ca^+2 can bind to the dye and alter its fluorescence intensity. This increase in fluorescence signal, and thus the flux in intracellular [Ca^2+], is detected and quantitated by fluorescence imaging using a FLIPR reader. The effect of the agonist is measured as a function of concentration and used to calculate an EC50 based upon a response curve.
In this procedure 2500 cells / well were employed.
(§2) A Human GPR120 clone (Genbank accession number NM _001195755.1) was placed into the pcDNA3.1 mammalian expression vector carrying the neomycin resistance gene. A stable mammalian cell was generated by placing the above clone into a HEK293 background. Clonal cells responding to long chain fatty acids had expression levels of GPR120 confirmed by RT-qPCR. Human HEK-GPR120 cells were cultured in Dulbecco's Modified Eagle's Medium (DMEM)/F12 medium supplemented with 10% fetal bovine serum (FBS), 1% L-Glutamine and 1% penicillin/streptomycin and 0.5 mg/ml G-418. Cells were split 2 times a week to keep the cells in the log-phase growth.
(§3) In preparation for the assay, HEK cells stably transfected with Human GPR120 (2.5K cells per well in 25uL growth medium) were seeded into 384-well plates and then incubated overnight (37°C, 5% CO2). The next day, the media was changed to 20 µL assay buffer and the cell starved for 1h at 37°C. […]
(§4) The assay was performed on a FLIPR plate reader using the following parameters. Baseline was read for 10 seconds at 1 sec intervals. The program was set to transfer 10µL of ligand from compound plate to cell plate after baseline reading. […] After compound addition, each well was read for 300 sec, with measurements collected at 1 sec intervals.
(§5) The kinetic data from the FLIPR was based upon a 5 minute window for data collection. The fluorescence of each sample well was used for individual calculations of a normalized RFU value, which was defined as maximum response minus the minimum response. The normalized fluorescence reading (RFU) was calculated as follows: RFU = Fmax−Fmin [formula] […]

[2] = biological target: T2, short form of the GPR120 receptor (Homo sapiens, UniProt Q5NUL3); assay: Human GPR120 DiscoveRx PathHunter Beta-Arrestin assay, Procedure β-arrestin B; settings: PathHunter CHO-K1 GPR120S β-Arrestin Cell Line, 5000 cells/well, read-out: hGPR120 β-arrestin B EC50
T2 construct: host or cells: PathHunter CHO-K1 GPR120S β-Arrestin Cell Line
T2 sequence (Q5NUL3 1-361): T1 sequence (Q5NUL3 1-361)
Description: The binding of an agonist (medium/long chain fatty acids or small molecule agonists) to the G-protein-coupled receptor GPR120 activates phospholipase C, leading to release of intracellular Ca^+2 through the generation of inositol 1,4,5-trisphosphate (InsP3 or IP3). GPR120 activation can also trigger intracellular signaling via recruitment of Beta-Arrestin. In the present method, agonist-induced activation of the human GPR120 receptor is monitored through the use of PathHunter CHO-K1 GPR120 Beta-Arrestin Cell Line engineered by DiscoveRx, as detailed below. The cell lines are designed to co-express both the ProLink/Enzyme Donor (PK)-tagged GPCR and the Enzyme […] (EA)-tagged Beta-Arrestin fusion proteins. Upon GPR120 receptor stimulation / activation, the EA-tagged Beta-Arrestin portion is translocated to the tagged receptor, where the two enzyme fragments are brought within close proximity.
Under these conditions, these fragments can interact and form an active Beta-gal enzyme complex through Enzyme Fragment Complementation (EFC). This active Beta-gal complex can enzymatically hydrolyse the substrate to produce a detectable light signal; therefore, activation as a function of agonist concentration can be expressed as an EC50 value to determine relative compound activities. This in vitro assay therefore serves to assess compound agonist activity of the GPR120.
In Procedure β-arrestin B the cells used were PathHunter CHO-K1 GPR120S β-Arrestin Cell Line, expressing the short form of the GPR120 receptor (Accession #NM_181745), with 5000 cells/well. […]
The plates were read on an EnVision instrument, using Protocol name: Luminescence, Plate type: 384 Costar, Measurement height: 3 mm, Measurement time: 1s, Aperture: 384 Plate aperture. The %activity relative to the positive control was calculated using the following equation: %Activity = (Countcompound −Countvehicle)/(Countpostivite control −Countvehicle) × 100% [formula] […]

Human GPR120 short form [3] = biological target: T1, Human GPR120 short form; assay: Human GPR120 Calcium Flux Assay, Procedure Calcium B; settings: HEK-293 cells expressing Human GPR120 short form, FLIPR, 4200 cells/well; read-out: GPR120 Ca^2+ Assay B EC50
Description: as §1
In this procedure 4200 cells/well were employed.
as §2, §3, §4, §5

O=C(O)CCc1cc(F)c(OCc2c(-c3ccc(F)c(F)c3)nsc2C(F)(F)F)c(F)c1 [Cpd 129, 3-(4-((3-(3,4-difluorophenyl)-5-(trifluoromethyl)isothiazol-4-yl)methoxy)-3,5-difluorophenyl)propanoic acid]
EC50 (Human GPR120 short form [1]): 125 nM

COc1cnc(-c2nsc(C(F)(F)F)c2COc2ccc(CCC(=O)O)c(C)c2C)s1 [Cpd 268, 3-(4-((3-(5-methoxythiazol-2-yl)-5-(trifluoromethyl)isothiazol-4-yl)methoxy)-2,3-dimethylphenyl)propanoic acid]
EC50 [2]: 445 nM | EC50 (Human GPR120 short form [3]): 473 nM

COC(=O)CCc1cc(F)c(OCc2c(-c3ccc(Cl)cc3F)nsc2C(F)(F)F)c(F)c1 [Cpd 263, Methyl 3-(4-{[3-(4-chloro-2-fluorophenyl)-5-(trifluoromethyl)isothiazol-4-yl]methoxy}-3,5-difluorophenyl)propanoate]
EC50 (Human GPR120 short form [3]): > 5000 nM

Cc1ccccc1-c1snc(Cl)c1COc1cc(C(F)(F)F)c(CCC(=O)O)cc1F [Cpd 246, 3-(4-((3-chloro-5-(o-tolyl)isothiazol4-yl)methoxy)-5-fluoro-2-(trifluoromethyl)phenyl)propanoic acid]
EC50 (Human GPR120 short form [1]): 2350 nM

Cc1c(CCC(=O)O)ccc(OCc2c(-c3ncc(Cl)s3)nsc2C(F)(F)F)c1C [Cpd 269, 3-(4-((3-(5-chlorothiazol-2-yl)-5-(trifluoromethyl)isothiazol-4-yl)methoxy)-2,3-dimethylphenyl)propanoic acid]
EC50 [2]: 676 nM | EC50 (Human GPR120 short form [3]): 194 nM

COc1cnc(-c2nsc(C(F)(F)F)c2COc2c(F)cc(CCC(=O)O)cc2F)s1 [Cpd 267, 3-(3,5-difluoro-4-((3-(5-methoxythiazol-2-yl)-5-(trifluoromethyl)isothiazol-4-yl)methoxy)phenyl)propanoic acid]
EC50 [2]: 526 nM | EC50 (Human GPR120 short form [3]): 274 nM
